The values below come from patent US20030171293A1, “Neuropeptide receptor and uses thereof” (Pfizer Inc., priority 2002, published 2003).

pEC50: −log10 of the molar value. Where a SMILES comes first, the peptide text is derived from it. Bridges are numbered along the chain shown (N, C = ends). [ ]: non-standard residue; d: D form. dTrp(2-Me) = Cc1[nH]c2ccccc2c1C[C@@H](N)C(=O)O; d2Nal = N[C@H](Cc1ccc2ccccc2c1)C(=O)O; Nle = CCCC[C@H](N)C(=O)O

The target in one assay is T1, receptor MRGX2 (Homo sapiens, UniProt Q96LB1).
T1 construct: expressed in transfected cells; host or cells: host line such as HEK293 or CHO-K1, stably expressing Galpha15/Gqi-5
T1 sequence (Q96LB1 1-330): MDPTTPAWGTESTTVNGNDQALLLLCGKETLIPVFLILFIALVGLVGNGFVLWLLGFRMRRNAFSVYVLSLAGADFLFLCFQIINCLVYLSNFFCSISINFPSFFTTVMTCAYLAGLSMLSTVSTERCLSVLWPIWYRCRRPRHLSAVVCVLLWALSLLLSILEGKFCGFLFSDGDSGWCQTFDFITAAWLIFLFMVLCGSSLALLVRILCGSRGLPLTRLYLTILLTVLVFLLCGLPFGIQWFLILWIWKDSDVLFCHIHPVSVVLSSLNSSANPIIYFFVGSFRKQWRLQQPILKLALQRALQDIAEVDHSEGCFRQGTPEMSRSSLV
The experiment in a line: Functional assay measuring intracellular calcium mobilisation (FLIPR). It is filed as cell-based. The note with it: for pEC50: Preliminary EC50 data for receptor MRGX2, transiently transfected cells, Fluo3 calcium response; for response of MRGX2 receptor: at a concentration of 1 μM. A general note: Calcium flux is commonly read through the fluorescence of an indicator in the cells.

Another assay relates to guinea pig ileum. The note with it: GPI assay; cited from earlier work.
The next assay concerns food intake. The note with it: i.c.v., free feeding rats; maximal response at 1 nmol dose; cited from earlier work.

Method for receptor MRGX2: 5×10^6 cells of a suitable host cell line, chosen to express a low number of endogenous receptors (e.g. HEK293 or CHO-K1) and engineered to stably express Gα15/Gqi-5, were transiently transfected with 7.5 μg of cDNA encoding receptor MRGX2 in a suitable mammalian cell expression vector, or vector alone, using Lipofectamine Plus® reagent (Gibco BRL) as per the manufacturer's protocol. If the cells were intended for a ligand binding assay or microphysiometry, they were incubated for 24-72 hours post transfection, and then harvested. If a microtitre plate-based assay was intended, the cells were detached from the flask using Trypsin/EDTA solution (LTI) 24 hours post transfection, and seeded into e.g. a black sided, Poly-D-lysine-treated, 96-well plate (Becton Dickinson) at 5×10^4 cells/well density. The plates were left overnight to allow the cells to adhere to the bottom of the wells.
Fluorescence Imaging Plate Reader (FLIPR®) technology was employed as a means to detect activation of receptor MRGX2 by various potential GPCR agonists.
24 hrs post-transfection, the cells were detached from the flask using Trypsin/EDTA solution (LTI) and seeded into a black sided, Poly-D-lysine-treated, 96-well plate (Becton Dickinson) at 5×10^4 cells/well density. The plates were left overnight to allow the cells to adhere to the bottom of the wells. The medium was removed from the cells and replaced with 100 μl warm (37° C.) dye loading solution (50 μg Fluo3 (Molecular Probes) in 20 μl DMSO+20% pluronic acid in DMSO, added to 11 ml Dulbecco's Modified Eagles Medium containing 1× Probenecid (100× Probenecid—0.71 g Probenecid was dissolved in 5 ml 1 M NaOH and 5 ml Dulbeccos' Phosphate Buffered Saline (PBS), per plate; Probenecid (Molecular Probes) inhibits activity of the anion transport protein, thus improving dye loading). The plates were then incubated for 1 hr at 37° C. Plates were subsequently washed with 250 μl of wash buffer per well (5 ml 100× Probenecid stock+495 ml PBS, pH 7.4) 4 times. The plates were returned to the 37° C./5%CO2 incubator for 30 mins prior to processing within the FLIPR® instrument. The FLIPR® processing involved reading the fluorescence for all samples for 2 minutes; during this time the fluorescence baseline was determined for 10 seconds. The desired amount of compounds (i.e. potential GPCR agonists) was then automatically transferred to the wells and the fluorescence was continuously monitored for the remainder of the time. All compounds were diluted in wash buffer.

A word on the pEC50: it is −log10 of the EC50, conventionally taken in molar units. For the compound `NCCC[C@@H](NC(=O)[C@@H]1CCCN1C(=O)[C@@H]1CSSCCC(=O)N[C@@H](Cc2ccc(O)cc2)C(=O)N[C@@H](Cc2ccccc2)C(=O)N[C@@H](CCC(N)=O)C(=O)N[C@@H](CC(N)=O)C(=O)N1)C(=O)NCC(N)=O` [(Deamino-Cysl,D-Orn^8) Vasopressin], at receptor MRGX2, the pEC50 is below 5.00.

On to `CC[C@H](C)[C@H](NC(=O)[C@H](CCCNC(=N)N)NC(=O)[C@H](CCCNC(=N)N)NC(=O)[C@H](CC(C)C)NC(=O)[C@H](Cc1ccccc1)NC(=O)CNC(=O)CNC(=O)[C@@H](N)Cc1ccc(O)cc1)C(=O)N[C@@H](CCCNC(=N)N)C(=O)N1CCC[C@H]1C(=O)N[C@@H](CCCCN)C(=O)N[C@@H](CC(C)C)C(=O)N[C@@H](CCCCN)C(=O)N[C@@H](Cc1c[nH]c2ccccc12)C(=O)N[C@@H](CC(=O)O)C(=O)N[C@@H](CC(N)=O)C(=O)N[C@@H](CCC(N)=O)C(=O)O` [Dynorphin A], for which, in the assay on guinea pig ileum, the “potency relative to [Leu]-enkephalin” value is reported as 700 times, the “potency relative to normorphine” value is reported as “about 200 times” and the “potency relative to β-endorphin” value is 50 times. At receptor MRGX2, the pEC50 is 5.73.

Take `CC(=O)N[C@H]1CSSC[C@@H](C(=O)N2CCC[C@H]2C(=O)N2CCC[C@H]2C(=O)N[C@@H](CCCCN)C(=O)N[C@@H](CC(=O)O)C(N)=O)NC(=O)CNC(=O)[C@H](Cc2c[nH]c3ccccc23)NC(=O)[C@H](CCCNC(=N)N)NC(=O)[C@@H](Cc2ccc3ccccc3c2)NC(=O)[C@H](Cc2c[nH]cn2)NC(=O)[C@H](CCC(=O)O)NC1=O` [HS014] (Ac-CEH[d2Nal]RWGCPPKD-NH2; disulfide 1-8; N-terminus and C-terminus assumed): the negative logarithm of the EC50 (pEC50) on receptor MRGX2 is below 5.00.

Regarding `CCCC[C@@H]1NC(=O)[C@@H](NC(C)=O)CSSC[C@@H](C(N)=O)NC(=O)CNC(=O)[C@H](Cc2c[nH]c3ccccc23)NC(=O)[C@H](CCCNC(=N)N)NC(=O)[C@@H](Cc2ccc3ccccc3c2)NC(=O)[C@H](Cc2c[nH]cn2)NC(=O)[C@H](CCCNC(=N)N)NC1=O` [HS024, (Acetyl-Cys^3,Nle^4,Arg^5,D-2-Nal^7,Cys^11)-α-MSH (3-11) amide] (Ac-C[Nle]RH[d2Nal]RWGC-NH2; disulfide 1-9 (inferred)), the “effect on food intake” value in the assay on food intake was “dose dependant increase in food intake”.

As for `Cc1[nH]c2ccccc2c1C[C@@H](NC(=O)[C@@H](N)Cc1cnc[nH]1)C(=O)N[C@@H](C)C(=O)N[C@@H](Cc1c[nH]c2ccccc12)C(=O)N[C@H](Cc1ccccc1)C(=O)N[C@@H](CCCCN)C(N)=O` [Hexarelin] (H-H[dTrp(2-Me)]AW[dF]K-NH2), the pEC50 on receptor MRGX2 was 5.02.

In the case of `CC(C)C[C@H](NC(=O)CNC(=O)[C@H](CCC(=O)O)NC(=O)CNC(=O)[C@H](C)N)C(=O)N[C@@H](CC(N)=O)C(=O)N[C@@H](CO)C(=O)N[C@@H](CCC(N)=O)C(=O)N[C@@H](Cc1ccccc1)C(=O)N[C@@H](Cc1c[nH]c2ccccc12)C(=O)N[C@@H](CO)C(=O)N[C@@H](CC(C)C)C(=O)N[C@@H](C)C(=O)N[C@@H](C)C(=O)N1CCC[C@H]1C(=O)N[C@@H](CCC(N)=O)C(=O)N[C@@H](CCCNC(=N)N)C(=O)N[C@@H](Cc1ccccc1)C(N)=O` [NPAF] (H-AGEGLNSQFWSLAAPQRF-NH2; N-terminus assumed), the negative logarithm of the EC50 (pEC50) at receptor MRGX2 was below 5.00.

Regarding `CC(C)C[C@H](NC(=O)[C@@H](N)CO)C(=O)N[C@@H](C)C(=O)N[C@@H](C)C(=O)N1CCC[C@H]1C(=O)N[C@@H](CCC(N)=O)C(=O)N[C@@H](CCCNC(=N)N)C(=O)N[C@@H](Cc1ccccc1)C(N)=O` [NPSF] (H-SLAAPQRF-NH2), the pEC50 on receptor MRGX2 was below 5.00.

For the compound `CC(C)C[C@H](NC(=O)[C@H](CCCCN)NC(=O)[C@H](CCCN=C(N)N)NC(=O)[C@H](C)NC(=O)[C@H](CO)NC(=O)[C@H](CCCCN)NC(=O)[C@H](CCCN=C(N)N)NC(=O)[C@H](C)NC(=O)CNC(=O)[C@@H](NC(=O)[C@H](Cc1ccccc1)NC(=O)CNC(=O)CNC(=O)[C@@H](N)Cc1ccccc1)[C@@H](C)O)C(=O)N[C@@H](C)C(=O)N[C@@H](CC(N)=O)C(=O)N[C@@H](CCC(N)=O)C(=O)O` [Nociceptin], the negative logarithm of the EC50 (pEC50) on receptor MRGX2 is below 5.00.

`C[C@@H](O)[C@@H]1NC(=O)[C@H](CCCCN)NC(=O)[C@@H](Cc2c[nH]c3ccccc23)NC(=O)[C@H](Cc2ccccc2)NC(=O)[C@@H](NC(=O)[C@H](N)Cc2ccccc2)CSSC[C@@H](C(=O)N[C@H](CO)[C@@H](C)O)NC1=O` [Octreotide]: the negative-log EC50 (pEC50) at receptor MRGX2 was below 5.00.

α-MSH: the “response of MRGX2 receptor” value in the assay with receptor MRGX2 was “responds”.

In the case of γ-MSH, in the assay with receptor MRGX2, the “response of MRGX2 receptor” value was “responds”.
